Experimental data from patent US7612018B2, “Insecticides” (Syngenta Crop Protection, Inc., priority 2004, dated 2009).

Legend:
Spodoptera littoralis [1] = experiment: Systemic Insecticide Test for Spodoptera littoralis (Example B9); assay type: in vivo; conditions: for Death rate (%) after 4 days: 1st instar larvae on cut leaves, one replicate
Procedure: Four day old maize seedlings (Zea mais, variety Stoneville) are placed individual in vials containing 24 ml water into which the chemical is diluted at the prescribed concentrations (12.5, 3 and 0.8 ppm). Seedlings are allowed to grow for six days. Subsequently leaves are cut and placed in a Petri dish (3.5 cm diameter), inoculated with twelve to fifteen 1st instar S. littoralis larvae and incubated for four days in a growth chamber (25° C., 50% r.h., 18:6 L:D photo period). Number of alive insects are counted and percentage of dead calculated. Tests were conducted with one replicate.

Diabrotica balteata = experiment: Activity against Diabrotica balteata (Example B2); assay type: in vivo; conditions: 144 h, maize seedlings, spray 400 ppm, 2nd instar larvae, 6 days, read-out: percentage reduction in the population (% activity)
Procedure: Maize seedlings are sprayed with an aqueous emulsion spray mixture comprising 400 ppm of active ingredient and, after the spray coating has dried on, populated with 10 larvae (2nd instar) of Diabrotica balteata and introduced into a plastic container. 6 days later, the percentage reduction in the population (% activity) is determined by comparing the number of dead larvae between the treated and untreated plants.

Heliothis virescens = experiment: Activity against Heliothis virescens (foliar application) (Example B3); assay type: in vivo; conditions: 144 h, young soya plants, spray 400 ppm, 1st instar caterpillars, 6 days, read-out: percentage reduction in the population and in the feeding damage (% activity)
Procedure: (§1) Young soya plants are sprayed with an aqueous emulsion spray mixture comprising 400 ppm of active ingredient and, after the spray coating has dried on, populated with 10 caterpillars (1st instar) of Heliothis virescens and introduced into a plastic container. 6 days later, the percentage reduction in the population and in the feeding damage (% activity) are determined by comparing the number of dead caterpillars and the feeding damage between the treated and untreated plants.

Plutella xylostella = experiment: Activity against Plutella xylostella (Example B7); assay type: in vivo; conditions: 72 h, young cabbage plants, spray 400 ppm, 3rd instar caterpillars, 3 days, read-out: percentage reduction in the population and in the feeding damage (% activity)
Procedure: as §1, with “cabbage” for “soya”, “(3rd” for “(1st”, “Plutella xylostella” for “Heliothis virescens”, “3” for “6”

Spodoptera littoralis [2] = experiment: Activity against Spodoptera littoralis (Example B8); assay type: in vivo; conditions: 72 h, young soya plants, spray 400 ppm, 1st instar caterpillars, 3 days, read-out: percentage reduction in the population and in the feeding damage (% activity)
Procedure: as §1, with “Spodoptera littoralis” for “Heliothis virescens”, “3” for “6”, “plants. In this test, compounds listed in the Tables above show good activity. In particular, the compounds T.64.1.136, T1.1.136, T64.1.1 and T1.1.1 have an activity of over 80%.” for “plants.”

[3] = 0.8 ppm in water of maize seedlings
[4] = 3 ppm in water of maize seedlings
[5] = 12.5 ppm in water of maize seedlings

Row | Structure (SMILES) | Death rate (%) after 4 days (Spodoptera littoralis [1]; [3]) [%] | Death rate (%) after 4 days (Spodoptera littoralis [1]; [4]) [%] | Death rate (%) after 4 days (Spodoptera littoralis [1]; [5]) [%] | inhibition at 400 ppm (Diabrotica balteata) [%] | inhibition at 400 ppm (Heliothis virescens) [%] | inhibition at 400 ppm (Plutella xylostella) [%] | inhibition at 400 ppm (Spodoptera littoralis [2]) [%] | insecticidal action on Spodoptera littoralis compared with the compound from the state of the art (Spodoptera littoralis [1]; comparison with Comp. 124, Table B9) | melting point [°C]
1 | Cc1cc(C(F)(C(F)(F)F)C(F)(F)F)ccc1NC(=O)c1cccc(C)c1C(=O)NC(C)(C)CS(C)(=O)=O [Comp. 124, reference compound] | 0 | 20 | 90 | – | – | – | – | – | –
2 | Cc1cc(C(F)(C(F)(F)F)C(F)(F)F)ccc1NC(=O)c1cccc(I)c1C(=O)NC(C)(C)CS(C)(=N)=O (centres unmarked) [Compound T1.1.1] | 100 | 100 | 100 | > 80 | > 80 | > 80 | > 80 | substantially better insecticidal action | –
3 | Cc1cc(C(F)(C(F)(F)F)C(F)(F)F)ccc1NC(=O)c1cccc(Cl)c1C(=O)NC(C)(C)CS(C)(=N)=O (centres unmarked) [Compound T1.1.136] | – | – | – | – | > 80 | > 80 | > 80 | – | 87 to 88
4 | Cc1cc(C(F)(C(F)(F)F)C(F)(F)F)ccc1NC(=O)c1cccc(I)c1C(=O)NC(C)(C)CS(C)(=O)=NC(=O)OC(C)(C)C (centres unmarked) [Compound T55.1.1] | – | – | – | – | > 80 | > 80 | – | – | –
5 | Cc1cc(C(F)(C(F)(F)F)C(F)(F)F)ccc1NC(=O)c1cccc(Cl)c1C(=O)NC(C)(C)CS(C)(=O)=NC(=O)OC(C)(C)C (centres unmarked) [Compound T55.1.136] | – | – | – | – | > 80 | > 80 | – | – | 113 to 114
6 | Cc1cc(C(F)(C(F)(F)F)C(F)(F)F)ccc1NC(=O)c1cccc(I)c1C(=O)NC(C)(C)C/S(C)=N/C(=O)OC(C)(C)C (centres unmarked) [Compound T64.1.1] | – | – | – | > 80 | > 80 | > 80 | > 80 | – | 125 to 126
7 | Cc1cc(C(F)(C(F)(F)F)C(F)(F)F)ccc1NC(=O)c1cccc(Cl)c1C(=O)NC(C)(C)C/S(C)=N/C(=O)OC(C)(C)C (centres unmarked) [Compound T64.1.136] | – | – | – | > 80 | > 80 | > 80 | > 80 | – | –
